According to PubChem BioAssay AID1259408 (Genetic Toxicology Data Bank (GENE-TOX), 2018):
Calls of active or inactive are those of the source. The rule behind the calls is not given here.

Tested on: GENE-TOX genotoxicity assays, various organisms and cells
Experiment: GENE-TOX mutagenicity studies
Details: for call: Assay Type: In vivo carcinogenicity studies
[1] = Species/Cell Type: Drosophila melanogaster, Assay Type: Sex-linked recessive lethal gene mutation, Assay Code: SRLT, Evaluation Type: Evaluation A (Pre-1980)
[2] = Species/Cell Type: Human, Assay Type: Sister-chromatid exchange (SCE) in vitro, Assay Code: SC1+D, Dose Response: With dose response, Evaluation Type: Evaluation B (Post-1980)
[3] = Species/Cell Type: Nonhuman, Assay Type: Sister-chromatid exchange (SCE) in vitro, Assay Code: SC2+D, Dose Response: With dose response, Evaluation Type: Evaluation B (Post-1980)
[4] = Species/Cell Type: Syrian hamster embryo (SA7/SHE) cells, Assay Type: Cell transformation, viral enhanced, Assay Code: CT7+, Evaluation Type: Evaluation A (Pre-1980)
[5] = Species/Cell Type: Mammalian polychromatic erythrocytes, Assay Type: Micronucleus test, chromosome aberrations, Assay Code: MNT-, Evaluation Type: Evaluation B (Post-1980)
[6] = Species/Cell Type: Salmonella typhimurium (one or more of the five standard strains: TA98, TA100, TA1535, TA1537, and TA1538), Assay Type: Histidine reverse gene mutation, Ames assay, Assay Code: SAL+*, Activation: With metabolic activation, Evaluation Type: Evaluation A (Pre-1980)
[7] = Species/Cell Type: Mammalian polychromatic erythrocytes, Assay Type: Micronucleus test, chromosome aberrations, Assay Code: MNTT, Evaluation Type: Evaluation A (Pre-1980)
[8] = Species/Cell Type: Bacillus subtilis (H17 vs M45), Assay Type: Rec-assay, spot test, DNA effects (bacterial DNA repair), Assay Code: REW-, Evaluation Type: Evaluation A (Pre-1980)

Nc1ccn([C@@H]2O[C@H](CO)[C@@H](O)C2O)c(=O)n1 (some centres not stated)
mutagenic call (Species/Cell Type: Chinese hamster lung (V79) cells, Assay Type: Forward gene mutation at the HPRT or ouabain locus, Assay Code: V79+, Evaluation Type: Evaluation A (Pre-1980)): active; positive
mutagenic call [1]: no conclusion
mutagenic call (Species/Cell Type: Ehrlich ascites tumor (mouse) cells, Assay Type: Chromosome aberrations, DNA effects, host-mediated assay, Assay Code: HMH+, Evaluation Type: Evaluation A (Pre-1980)): active; positive
mutagenic call (Species/Cell Type: Glycine max (soybean), Assay Type: Gene mutation, Assay Code: GLM-, Evaluation Type: Evaluation A (Pre-1980)): inactive; negative
mutagenic call (Species/Cell Type: Human lymphocytes or leukocytes, Assay Type: Chromosome aberrations in vitro, Assay Code: CY7+, Evaluation Type: Evaluation A (Pre-1980)): active; positive
mutagenic call (Species/Cell Type: Human lymphocytes, Assay Type: Sister-chromatid exchange (SCE) in vitro, Assay Code: SCL+, Evaluation Type: Evaluation B (Post-1980)): active; positive
mutagenic call (Species/Cell Type: Human lymphocytes, Assay Type: Sister-chromatid exchange (SCE) in vitro, Assay Code: SCLT, Evaluation Type: Evaluation A (Pre-1980)): no conclusion
mutagenic call [2]: active; positive
mutagenic call (Species/Cell Type: Human, Assay Type: Sister-chromatid exchange (SCE) in vitro, Assay Code: SC1T, Evaluation Type: Evaluation A (Pre-1980)): no conclusion
mutagenic call (Species/Cell Type: Mammalian polychromatic erythrocytes, Assay Type: Micronucleus test, chromosome aberrations, Assay Code: MNT+, Evaluation Type: Evaluation B (Post-1980)): active; positive
mutagenic call (Species/Cell Type: Mouse (C3H/10T1/2) cells, Assay Type: Cell transformation, Assay Code: CTH+, Evaluation Type: Evaluation A (Pre-1980)): active; positive
mutagenic call [3]: active; positive
mutagenic call (Species/Cell Type: Nonhuman, Assay Type: Sister-chromatid exchange (SCE) in vivo, Assay Code: SC3T, Evaluation Type: Evaluation A (Pre-1980)): no conclusion
mutagenic call [4]: active; positive
mutagenic call (Species/Cell Type: Syrian hamster embryo (SHE) cells, Assay Type: Cell transformation, clonal assay, Assay Code: CTC+, Evaluation Type: Evaluation A (Pre-1980)): active; positive

Cc1cc2ccccc2c2cc(F)c3ccccc3c12
mutagenic call (Species/Cell Type: Salmonella typhimurium (one or more of the five standard strains: TA98, TA100, TA1535, TA1537, and TA1538), Assay Type: Histidine reverse gene mutation, Ames assay, Assay Code: SALT, Evaluation Type: Evaluation A (Pre-1980)): no conclusion

C=CC#N
mutagenic call [1]: no conclusion
mutagenic call (Species/Cell Type: Escherichia coli WP2, Assay Type: Tryptophan reverse gene mutation, Assay Code: WP2+D, Dose Response: With dose response, Evaluation Type: Evaluation A (Pre-1980)): active; positive
mutagenic call (Species/Cell Type: Escherichia coli WP2 UVRA, Assay Type: Tryptophan reverse gene mutation, Assay Code: WPU+, Evaluation Type: Evaluation A (Pre-1980)): active; positive
mutagenic call [5]: inactive; negative
call (Species/Cell Type: Nonhuman, Assay Code: CCG+, Evaluation Type: Evaluation A (Pre-1980)): active; positive
mutagenic call [3]: active; positive
mutagenic call (Species/Cell Type: Nonhuman, Assay Type: Sister-chromatid exchange (SCE) in vivo, Assay Code: SC3+D, Dose Response: With dose response, Evaluation Type: Evaluation B (Post-1980)): active; positive
mutagenic call [6]: active; positive
mutagenic call [4]: active; positive
mutagenic call (Species/Cell Type: Syrian hamster embryo (SHE) cells, Assay Type: Cell transformation, focus assay, Assay Code: CTF+, Evaluation Type: Evaluation A (Pre-1980)): active; positive

CCCCOc1ccc2nc3cc(Cl)ccc3c(NCCCNCCCl)c2n1
mutagenic call (Species/Cell Type: Chinese hamster ovary (CHO) cells, Assay Type: Forward gene mutation at the HPRT locus, Assay Code: CHO+, Evaluation Type: Evaluation B (Post-1980)): active; positive

CC[N+](=O)[O-]
mutagenic call [7]: no conclusion

CCN(CC)c1ccc2c(-c3ccc(C(=O)O)cc3C(=O)[O-])c3ccc(=[N+](CC)CC)cc-3oc2c1
mutagenic call [5]: inactive; negative
mutagenic call [3]: active; positive

O=C1C=CCO1
mutagenic call [8]: inactive; negative

[Cl][Tb]([Cl])[Cl]
mutagenic call [8]: inactive; negative

C[C@H]1O[C@@H](O[C@H]2[C@@H](O)C[C@H](O[C@H]3[C@@H](O)C[C@H](O[C@H]4CC[C@@]5(C)[C@H](CC[C@@H]6[C@@H]5C[C@@H](O)[C@]5(C)[C@@H](C7=CC(=O)OC7)CC[C@]65O)C4)O[C@@H]3C)O[C@@H]2C)C[C@H](O)[C@@H]1O
mutagenic call (Species/Cell Type: Escherichia coli polA (W3119 vs P3478), Assay Type: Rec-assay, DNA effects (bacterial DNA repair), Assay Code: RE1T, Evaluation Type: Evaluation A (Pre-1980)): no conclusion

C[CH2][Hg][Cl]
mutagenic call (Species/Cell Type: Mammalian polychromatic erythrocytes, Assay Type: Micronucleus test, chromosome aberrations, Assay Code: MNTT, Evaluation Type: Evaluation B (Post-1980)): no conclusion

CCC(Br)(CC)C(=O)NC(N)=O
call (Species/Cell Type: Nonhuman, Assay Code: CCG-, Evaluation Type: Evaluation A (Pre-1980)): inactive; negative

CC(=O)N(O)c1ccc2c(ccc3ccccc32)c1
mutagenic call (Species/Cell Type: Human diploid fibroblasts, Assay Type: Unscheduled DNA synthesis (UDS) in vitro, DNA effects, Assay Code: UDH+, Evaluation Type: Evaluation A (Pre-1980)): active; positive
call (Species/Cell Type: Nonhuman, Assay Code: CCG+L, Evaluation Type: Evaluation A (Pre-1980)): active; positive

ONC1CCCCC1
mutagenic call [1]: no conclusion
mutagenic call (Species/Cell Type: Drosophila melanogaster, Sex: Male, Assay Type: Heritable translocation test, chromosome aberrations, Assay Code: DHTT, Evaluation Type: Evaluation A (Pre-1980)): no conclusion
mutagenic call (Species/Cell Type: Human lymphocytes or leukocytes, Assay Type: Chromosome aberrations in vitro, Assay Code: CY7-, Evaluation Type: Evaluation A (Pre-1980)): inactive; negative

O=c1[nH]c(=O)n([C@H]2C[C@H](O)[C@@H](COP(=O)(O)O)O2)cc1[N+](=O)[O-]
mutagenic call (Species/Cell Type: Human lymphocytes, Assay Type: Sister-chromatid exchange (SCE) in vitro, Assay Code: SCL+D, Dose Response: With dose response, Evaluation Type: Evaluation B (Post-1980)): active; positive
mutagenic call [2]: active; positive

Cc1cc2ccccc2c2ccc3c(c12)CCC3=O
mutagenic call [6]: active; positive

OCCBr
mutagenic call (Species/Cell Type: Escherichia coli polA (W3119 vs P3478), Assay Type: Rec-assay, DNA effects (bacterial DNA repair), Assay Code: RE1+, Evaluation Type: Evaluation A (Pre-1980)): active; positive
mutagenic call (Species/Cell Type: Mouse, Sex: Male, Assay Type: Sperm morphology, Assay Code: SPI-, Evaluation Type: Evaluation A (Pre-1980)): inactive; negative
mutagenic call (Species/Cell Type: Salmonella typhimurium (one or more of the five standard strains: TA98, TA100, TA1535, TA1537, and TA1538), Assay Type: Histidine reverse gene mutation, Ames assay, Assay Code: SAL+, Evaluation Type: Evaluation A (Pre-1980)): active; positive
mutagenic call (Species/Cell Type: Tradescantia species, Assay Type: Gene mutation, Assay Code: TRM+D, Dose Response: With dose response, Evaluation Type: Evaluation A (Pre-1980)): active; positive

CO[C@H]1/C=C/O[C@@]2(C)Oc3c(C)c(O)c4c(O)c(c(/C=N/N5CCN(C)CC5)c(O)c4c3C2=O)NC(=O)/C(C)=C\C=C\[C@H](C)[C@H](O)[C@@H](C)[C@@H](O)[C@@H](C)[C@H](OC(C)=O)[C@@H]1C
mutagenic call [1]: no conclusion

CN1CCN(CCCN2c3ccccc3S(=O)c3ccccc32)CC1
mutagenic call (Species/Cell Type: Human lymphocytes, Assay Type: Sister-chromatid exchange (SCE) in vitro, Assay Code: SCLT, Evaluation Type: Evaluation B (Post-1980)): no conclusion
mutagenic call (Species/Cell Type: Human, Assay Type: Sister-chromatid exchange (SCE) in vitro, Assay Code: SC1T, Evaluation Type: Evaluation B (Post-1980)): no conclusion

O=C(O)COc1cc(Cl)c(Cl)cc1Cl
mutagenic call (Species/Cell Type: Drosophila melanogaster, Assay Type: Aneuploidy, sex chromosome gain, chromosome aberrations, Assay Code: DAG-M-F, Evaluation Type: Evaluation A (Pre-1980)): inactive; negative
mutagenic call (Species/Cell Type: Drosophila melanogaster, Assay Type: Aneuploidy, whole sex chromosome loss, chromosome aberrations, Assay Code: DAC-M-F, Evaluation Type: Evaluation A (Pre-1980)): inactive; negative
mutagenic call (Species/Cell Type: Drosophila melanogaster, Assay Type: Sex-linked recessive lethal gene mutation, Assay Code: SRL+, Evaluation Type: Evaluation A (Pre-1980)): active; positive
mutagenic call [1]: no conclusion
mutagenic call [7]: no conclusion
mutagenic call (Species/Cell Type: Nonhuman bone marrow, Assay Type: Chromosome aberrations, in vivo, Assay Code: CY#+D, Dose Response: With dose response, Evaluation Type: Evaluation A (Pre-1980)): active; positive
mutagenic call (Species/Cell Type: Saccharomyces cerevisiae, Assay Type: Reverse gene mutation, Assay Code: YER+, Evaluation Type: Evaluation A (Pre-1980)): active; positive
mutagenic call (Species/Cell Type: Salmonella typhimurium, Serratia marcesens, Assay Type: Forward and reverse gene mutation, host-mediated assay, Assay Code: HM2T, Evaluation Type: Evaluation A (Pre-1980)): no conclusion
mutagenic call (Species/Cell Type: Vicia faba, Assay Type: Chromosome aberrations, Assay Code: VIC+, Evaluation Type: Evaluation A (Pre-1980)): active; positive

Nc1c[nH]c(=O)[nH]c1=O
mutagenic call (Species/Cell Type: Allium cepa, Assay Type: Chromosome aberrations, Assay Code: ALC+, Evaluation Type: Evaluation A (Pre-1980)): active; positive

CN(C)CC/C=C1/c2ccccc2Sc2ccc(Cl)cc21
mutagenic call (Species/Cell Type: Nonhuman, Assay Type: Sister-chromatid exchange (SCE) in vitro, Assay Code: SC2+D, Dose Response: With dose response, Evaluation Type: Evaluation A (Pre-1980)): active; positive

O=[N+]([O-])c1ccc(Nc2ccc(N=C=S)cc2)cc1
mutagenic call (Species/Cell Type: Salmonella typhimurium, Assay Type: Forward and reverse gene mutation, body fluid assay, Assay Code: BFU+, Evaluation Type: Evaluation A (Pre-1980)): active; positive
